The values below come from patent publication US9868730B2, “Kappa opioid receptor selective compounds, compositions, and uses thereof” (The Trustees of Columbia University in the City of New York, priority 2013, dated 2018).

The structures appear in SMILES notation. Entries after “also recorded” stand apart in the source; their conditions may differ.

For test [1], the target named is T1, KOP receptor (Homo sapiens, UniProt P41145). As to the kind of experiment: G protein bias from BRET-based G protein activation and arrestin recruitment assays. Format: cell-based.
Test [2] deals with T2, MOP receptor (Homo sapiens, UniProt P35372). Nature of the test: Competitive inhibition of 3H-diprenorphine binding. Particulars: 0.3 nM 3H-diprenorphine; means ± S.E.M. (n = 3). As for the experimental part:
(§1) Two days after transfection with human KOP receptor and GαoB, HEK293T cells were lysed and membranes were prepared in HEPES buffer (NaCl 140 mM, KCl 5.4 mM, HEPES 25 mM, EDTA 1 mM, MgCl2 2 mM, BSA 0.006%, pH 7.4) using a Polytron homogenizer. Membranes were incubated with ^3H-diprenorphine (0.3 nM) (PerkinElmer, Waltham, Mass.) at room temperature for 1 hour in a final volume of 1 ml, in the absence or presence of various concentrations of each small-molecule selected from the virtual screening. Membranes were then harvested using a Brandel cell harvester through a Whatman FPD-24 934AH glass-fiber filter and washed three times with ice-cold wash Buffer (Tris-HCl 10 mM, NaCl 120 mM, pH 7.4). Non-specific binding was determined using 400 nM of NorBNI.
(§2) To assess the degree of selectivity of MCKK-4, MCKK-5, MCKK-13, MCKK-17R or MCKK-17S for the hKOP over the DOP and MOP receptors, competitive inhibition of ^3H-diprenorphine (0.3 nM) binding in the absence or presence of various concentrations of each molecule were performed, and their Ki values for each receptor were determined (Table 2 below).

For test [3], the target named is T3, DOP receptor (Homo sapiens, UniProt P41143). As to the kind of experiment: Competitive inhibition of 3H-diprenorphine binding. Particulars: 0.3 nM 3H-diprenorphine; means ± S.E.M. (n = 3). As for the experimental part:
as §1, §2

Test [4] concerns the target T1, KOP receptor. As to the kind of experiment: BRET-based G protein (GαoB) activation assay in HEK293T cells. Format: cell-based. Also on record: host or cells: HEK293T. Particulars: for EC50: hKOP co-expressed with GαoB-RLuc8, β1, mVenus-γ2, read-out: potency (EC50) of GαoB activation at hKOP; for agonistic activity at hKOP (G protein activation), in words: relative to EKC. The text has this: (§3) The cDNAs for human KOP (hKOP) receptor and the G protein GαoB were obtained from the Missouri S&T cDNA Resource Center. For arrestin recruitment experiments, full-length Renilla luciferase 8 (RLuc8, provided by S. Gambhir) was fused in-frame to the C terminus of the hKOP receptor in the pcDNA3.1 vector. The following human G protein constructs were provided by C. Gales (Gales et al., 2006; Sauliere et al., 2012): GαoB with RLuc8 inserted at position 91 (GαoB-RLuc8); untagged Gβ1 (β1); untagged Gγ2 (γ2). The human γ2 subunit was fused to full-length mVenus at its N terminus (mVenus-γ2), and the fusion construct human arrestin3-mVenus was used as previously described (Klewe et al., 2008). All constructs were confirmed by sequencing analysis. A total of 20 μg of plasmid cDNA (e.g. 0.2 μg of hKOR-RLuc8, 15 μg of arrestin3-mVenus, and 4.8 μg of pcDNA3.1) was transfected into HEK-293T cells using polyethylenimine (Polysciences Inc., Warrington, Pa.) in a 1:3 ratio in 10-cm dishes. Cells were maintained in culture with DMEM supplemented with 10% FBS. The transfected ratio among receptor, Gα, β1, and γ2, or arrestin was optimized by testing various ratios of plasmids encoding the different sensors. Experiments were performed 48 hours after transfection.
(§4) BRET was performed as described (Guo et al., 2008). Briefly, two days after transfection, cells were harvested, washed, and re-suspended in a phosphate-buffered saline (PBS) solution. Approximately 200,000 cells/well were distributed in 96-well plates, and 5 μM coelenterazine H (luciferase substrate) was added to each well. Five minutes after the addition of coelenterazine H, ligands were added to each well, and after 2 minutes for G protein activation or 5 minutes for arrestin recruitment, the BRET signal was determined by quantifying and calculating the ratio of the light emitted by mVenus, the energy acceptor (510-540 nm), over that emitted by RLuc8, the energy donor (485 nm). The drug-induced BRET signal was normalized, taking the Emax of the ethylketocyclazocine (EKC)-induced response as 100%. To measure cAMP accumulation, a BRET-based cAMP in a previously described YFP-Epac-RLuc (CAMYEL) assay was used (Jiang et al., 2007). GαoB B, β1, and γ2 were co-expressed to enhance the signal-to-noise ratio, and the cells were treated for 5 minutes with 100 μM forskolin prior to stimulation (Jiang et al., 2007). The data were normalized and represented as the percentage of forskolin-stimulated cAMP accumulation with 0 defined as the maximal inhibition elicited by EKC.
To assess whether any of these molecules had agonistic activity, a BRET-based G protein activation assay where the hKOP receptor was co-expressed in HEK293T cells with GαoB-RLuc8, β1, and mVenus-γ2 was used. The drug-induced BRET signal is interpreted as a dissociation of and/or conformational change within the Gαβγ complex, and thus, as the activation of the co-expressed G protein.
Background: In BRET a luciferase serves as donor, and the signal depends on an acceptor being close.

Test [5] concerns the target T2, MOP receptor. As to the kind of experiment: BRET-based G protein activation assay. More on the design: expressed in transfected cells. Type of test: cell-based. As for the experimental part: as §4
Test [6] addresses T3, DOP receptor. Nature of the test: BRET-based G protein activation assay. Format: cell-based. Also on record: expressed in transfected cells. Particulars: for EC50: read-out: potency of G protein activation at DOP. As for the experimental part: as §4
Test [7] concerns the target T1, KOP receptor. As to the kind of experiment: Competitive inhibition of 3H-diprenorphine binding, membranes of transfected HEK293T cells. More on the design: host or cells: HEK293T. The note with it: for Ki / inhibition of 3H-diprenorphine binding: 0.3 nM 3H-diprenorphine; for Ki: means ± S.E.M. (n = 3), read-out: Ki KOP; for inhibition of 3H-diprenorphine binding: 100 μM compound, room temperature, 1 hour. As for the experimental part:
as §1
The primary experimental testing of MCKK-1-22 consisted of performing a competitive inhibition binding assay at the hKOP receptor. Membranes of HEK293T cells transfected with the hKOP receptor and GαoB were prepared and incubated with ^3H-diprenorphine (0.3 nM) in the absence or presence of 10 or 100 μM of each small-molecule from the virtual screening.
as §2

Test [8] deals with T1, KOP receptor. As to the kind of experiment: BRET-based arrestin3 recruitment assay. Type of test: cell-based. More on the design: host or cells: HEK293T. Particulars: hKOP-RLuc8 with arrestin3-mVenus; read-out: potency of arrestin3 recruitment at hKOP.
From the text: as §3
BRET was performed as described (Guo et al., 2008). Briefly, two days after transfection, cells were harvested, washed, and re-suspended in a phosphate-buffered saline (PBS) solution. Approximately 200,000 cells/well were distributed in 96-well plates, and 5 μM coelenterazine H (luciferase substrate) was added to each well. Five minutes after the addition of coelenterazine H, ligands were added to each well, and after 2 minutes for G protein activation or 5 minutes for arrestin recruitment, the BRET signal was determined by quantifying and calculating the ratio of the light emitted by mVenus, the energy acceptor (510-540 nm), over that emitted by RLuc8, the energy donor (485 nm). The drug-induced BRET signal was normalized, taking the Emax of the ethylketocyclazocine (EKC)-induced response as 100%. […]

As usually defined, the Ki is the dissociation constant of the complex between target and ligand, obtained from inhibition or displacement. For `O=C(CN1CCC[C@H]1C(=O)Nc1nccs1)Nc1cccc(F)c1` [MCKK-17S, (S)-1-(2-(3-fluorophenylamino)-2-oxoethyl)-N-(thiazol-2-yl)pyrrolidine-2-carboxamide], the “bias toward G protein activation over arrestin” value in test [1] is on record as “not biased toward G protein activation over arrestin”. In addition, the Ki in test [2] was > 10000 µM. Also, the inhibitory constant (Ki) in test [3] is > 10000 µM. Besides, in test [4], the “selectivity for hKOP relative to MOP and DOP receptors (G protein activation)” value is “selective for hKOP relative to MOP and DOP receptors”; the EC50 worked out at 7.2 ± 3.8 µM; the “agonistic activity at hKOP (G protein activation), in words” value (“agonistic activity at hKOP” below) is recorded as “full agonism relative to EKC; also recorded: more active stereoisomer”. Further, the “agonistic activity at MOP (G protein activation), in words” value (“agonistic activity at MOP” below) in test [5] was “Neither the racemic nor the MCKK-17 stereoisomers displayed significant activity”. Moreover, in test [6], the “agonistic activity at DOP (G protein activation), in words” value is listed as “did not significantly activate the DOP receptor” and the EC50 was > 1000 µM. For the same compound, in test [7], the “selectivity for hKOP over DOP and MOP receptors (binding affinity)” value is recorded as “exhibited selectivity for the hKOP receptor”; the Ki worked out at 123 ± 38 µM. The EC50 in test [8] was found to be 123 ± 47 µM.
Regarding `Oc1ccc2c(c1)[C@@]13CCCC[C@@]1(O)[C@@H](C2)N(CC1CCC1)CC3` [butorphanol], the “bias toward G protein activation over arrestin” value in test [1] is recorded as “showed bias toward G protein activation over arrestin”.
`C[C@H]1[C@H]2Cc3ccc(O)cc3[C@]1(C)CCN2CC1CC1` [cyclazocine]: in test [1], the “bias toward G protein activation over arrestin” value was “showed bias toward G protein activation over arrestin; also recorded: biased toward G protein activation”.
The same measure, in the same setting: then `CC[C@]12CCN(CC3CC3)[C@H](C(=O)c3ccc(O)cc31)[C@@H]2C` [EKC, ethylketocyclazocine], with “non-biased”; and `O=C(N[C@@H]1CC[C@@]2(O)C3Cc4ccc(O)c5c4[C@@]2(CCN3CC2CC2)[C@H]1O5)c1ccc2ccccc2c1` [NNTA], with “non-biased”.
Consider `O=C(CN1CCCC1C(=O)Nc1nccs1)Nc1cccc(F)c1` (racemic) [MCKK-17, 1-(2-(3-fluorophenylamino)-2-oxoethyl)-N-(thiazol-2-yl)pyrrolidine-2-carboxamide], for which the EC50 was 8.3 ± 4 µM in test [4], > 1000 µM in test [6] and 164 ± 38 µM in test [8]. Moreover, in test [4], the “agonistic activity at hKOP” value is on record as “exhibited agonistic activity”. The “agonistic activity at MOP” value in test [5] was “Neither the racemic nor the MCKK-17 stereoisomers displayed significant activity”. Also, the entries for the “inhibition of 3H-diprenorphine binding” value in test [7] and in test [7] (listed as MCKK-17(R/S)) were “partially but significantly inhibited” and “significantly inhibited”, respectively.
For the compound `CN1CC[C@]23CCCC[C@H]2[C@H]1Cc1ccc(O)cc13` [levorphanol], the “bias toward G protein activation over arrestin” value in test [1] was “showed bias toward G protein activation over arrestin”.
Take `CN(CC(=O)NC1CCN(Cc2ccccc2)C1)Cc1ccco1` (centres unmarked) [MCKK-5]: the Ki came out at 428 ± 137 µM in test [2], 179 ± 187 µM in test [3] and 134 ± 81 µM in test [7]. In test [4], the “agonistic activity at hKOP” value was “None of the other molecules, MCKK-4, MCKK-5 and MCKK-13, significantly activated GoB”. Moreover, the “inhibition of 3H-diprenorphine binding” value in test [7] is “partially but significantly inhibited”.
As to `O=C(Nc1cccc(-n2cccn2)c1)C1CCCN1Cc1c[nH]cn1` (centres unmarked) [MCKK-4], the inhibition constant Ki was determined as 906 ± 836 µM in test [2], 641 ± 192 µM in test [3] and 292 ± 209 µM in test [7]. Also, the “agonistic activity at hKOP” value in test [4] was “None of the other molecules, MCKK-4, MCKK-5 and MCKK-13, significantly activated GoB”. In addition, the “inhibition of 3H-diprenorphine binding” value in test [7] is “partially but significantly inhibited”.
On to `O=C(CN1CCC[C@@H]1C(=O)Nc1nccs1)Nc1cccc(F)c1` [MCKK-17R, (R)-1-(2-(3-fluorophenylamino)-2-oxoethyl)-N-(thiazol-2-yl)pyrrolidine-2-carboxamide], for which the figures for the Ki in test [2], in test [3] and in test [7] were 508 µM, 286 µM and 2900 µM, respectively. For the same compound, the figures for the EC50 in test [4], in test [6] and in test [8] were 115 ± 9 µM, > 1000 µM and > 1000 µM, respectively. The “agonistic activity at MOP” value in test [5] was “Neither the racemic nor the MCKK-17 stereoisomers displayed significant activity”. The “agonistic activity at DOP (G protein activation), in words” value in test [6] is listed as “most active enantiomer at the DOP receptor”.
For `O=S1(=O)CCC(NCc2cccc(OCCn3ccnc3)c2)C1` (centres unmarked) [MCKK-13], the inhibition constant (Ki) in test [2] was > 10000 µM; in test [3], 300 ± 99 µM; in test [7] it was 453 ± 27 µM. Also, the “agonistic activity at hKOP” value in test [4] is “None of the other molecules, MCKK-4, MCKK-5 and MCKK-13, significantly activated GoB”. Further, the “inhibition of 3H-diprenorphine binding” value in test [7] is “partially but significantly inhibited”.
